Measured values published in patent publication US20260048081A1, “COMBINED TREATMENT COMPOSITION FOR TUMOR TREATMENT AND COMBINED TREATMENT METHOD” (ADVACCINE (SUZHOU) BIOPHARMACEUTICALS CO., LTD., priority 2022, published 2026).

Legend:
4T1 breast cancer cell = format: in vivo; details: 2 μg/kg cisplatin (CDDP alone printed 2 g/kg), 50 μg/mouse CpG, 50 μg/mouse R848
B16-F10 mouse melanoma [1] = assay: Large-volume B16-F10 melanoma model, intratumoral injection: tumor volume and survival (Examples 10-13); format: in vivo
Procedure: To establish a B16-F10 mouse melanoma model, the tumor cells were inoculated at 3×10^5 cells/mouse. Once the tumors reached an appropriate size with an average of about 200 mm^3, suitable mice were selected based on the tumor size and body weight and given drugs according to the following groups. […] Specific groups were as follows: Group G1, normal saline (NS) control group: mice were treated once a week; Group G2: mice received an intratumoral injection of CDDP, followed by an intratumoral injection of CR108 two days later, once a week; Group G3: for each administration cycle, mice first received an intratumoral injection of CDDP, followed by an intratumoral injection of CR108 two days later, which was repeated every other day, with four administrations constituting one cycle, and after a one-week interruption, the next administration cycle was repeated; and Group G4: after CDDP and CR108 were mixed, mice received an intratumoral injection of the mixture, twice a week. After the administration was completed according to the flowchart, the administration was stopped, and the tumor size and physiological states of the mice were monitored during this period. When the tumor volume of each mouse exceeded 2000 mm^3 for the first time or the body weight of the animal was less than 80% of the body weight before the first administration, it was considered an ethical death, and the animal was euthanized. The remaining mice continued to be observed.
Experimental groups were as follows: (1) a normal saline control group, with the same administration protocol as that in Group G1 of Example 10; (2) CDDP^Hi+CR108 (at a cisplatin dose of 0.4 mg/kg), with the same administration protocol as that in Group G2 of Example 10 (qw); (3) CDDP^Lo+CR108 (at a cisplatin dose of 2 μg/kg), with the same administration protocol as that in Group G3 of Example 10 (qod); and (4) CDDP^Hi+CR108 (0.4 mg/kg cisplatin), with the same administration protocol as that in Group G3 of Example 10 (qod); the dose of CR108 used in each group was 50 μg/mouse CpG1018 and 50 μg/mouse water-soluble R848. […]

B16-F10 mouse melanoma [2] = assay: B16-F10 mouse melanoma model, small-volume tumors (Example 9); format: in vivo; details: 4 mg/kg cisplatin, intraperitoneal injection, days 7, 14, 21
Procedure: This example further explored the effect of cisplatin combined with CR108 adjuvant on mouse melanoma. A B16-F10 mouse melanoma model was constructed by subcutaneously inoculating tumor cells on the right side of the back of the mice proximal to the hip position at 3×10^5 cells/mouse, […]
Specific mouse administration groups were as follows: (1) a PBS negative control group, (2) CDDP^Lo (2 μg/kg cisplatin), (3) CR108 (50 μg/mouse CpG1018 and 50 μg/mouse water-soluble R848), (4) CDDP^Lo+CR108 (2 μg/kg cisplatin, 50 μg/mouse CpG1018 and 50 μg/mouse water-soluble R848), (5) CDDP^Lo+C′ (2 μg/kg cisplatin and 50 μg/mouse CpG1018), (6) CDDP^Lo+R (2 μg/kg cisplatin and 50 μg/mouse water-soluble R848), and (7) CDDP^Hi (4 mg/kg cisplatin, regular cisplatin chemotherapeutic drug dose). Except for Group (7), which received a high dose of cisplatin by intraperitoneal injection, all other groups were administered by subcutaneous injection near the tumor. […]
On day 4 after the last administration, mice were sacrificed, tumor tissues of the mice were separated and weighed using an analytical balance; the weights were recorded, and the tumors were photographed for recording. […]

[3] = tested on: BALB/c mouse spleen cells; assay: In vitro stimulation of mouse spleen cells to secrete TNF-α; format: cell-based; details: FIG. 9; stimulated 18-20 h; research-grade versus pharmaceutical grade reagent
Procedure: Drug preparation: The preparation and use of the research-grade reagents CpG1826 and R848 (water soluble) were the same as those in Example 1; the pharmaceutical agent R848 (lipid soluble) was dissolved in DMSO to prepare a 10 mg/mL stock solution, 0.1 mL of the stock solution was taken for each administration, the volume was brought to 1 mL, and a 1 mg/mL solution was prepared; CpG1018 was prepared at 1 mg/ml with PBS before each administration.
The spleens of three blank BABL/c mice were added to a 30 mm cell culture dish, 1640 medium was added, and the resulting mixture was ground, filtered through a copper screen, and centrifuged at 1500 rpm for 3 min. The supernatant was discarded, 2 mL of a red blood cell lysis buffer was added, and the samples were left to stand for 2 min, terminated with 4 mL of 1640+10% FBS, and centrifuged at 1500 rpm for 3 min. The supernatant was discarded, the samples were resuspended in 1640+10% FBS, and the cells were counted. The cells were plated in a 96-well cell culture plate at 2×10^6 cells/well, with 200 μL of culture medium per well. […] After the cells were stimulated for 18-20 h, the cell culture supernatant was collected, and the expression of cytokines in each 10^6 mouse spleen cells was determined by using a mouse TNF-α detection kit (purchased from NeoBioscience Technology Co., Ltd., Catalog No. EMC102a.96) according to the instructions.

| SMILES | tumor volume growth curve (4T1 breast cancer cell; Example 7, FIG. 12, 6 mice per group) | tumor weight (4T1 breast cancer cell; Example 7, FIG. 13, end of the experiment) | tumor volume compared with the normal saline control group (B16-F10 mouse melanoma [1]; Example 12, FIG. 31, day 28, CDDP 4 mg/kg once a week, CR108 G3 protocol, CDDP+CR108 0.4 mg/kg cisplatin G3 protocol) | day on which all mice were euthanized due to tumor volume exceeding 2000 mm^3 (B16-F10 mouse melanoma [1]; Example 12, 4 mg/kg CDDP once a week) [days] | median survival time (B16-F10 mouse melanoma [1]; Example 12, CDDP 4 mg/kg once a week, CR108 alone G3 protocol, CDDP+CR108 0.4 mg/kg CDDP, not counted on day 45, saline control 26 days) [days] | mouse death during the administration period (B16-F10 mouse melanoma [2]) | levels of TNF-α cytokines produced from mouse spleen cells stimulated in vitro [3] |
| --- | --- | --- | --- | --- | --- | --- | --- |
| [NH2][Pt]([NH2])([Cl])[Cl] [CDDP, cisplatin] | grew rapidly | too large and overweight | significantly lower than that in the normal saline control group | 36 | 36 | One mouse | – |
| CCOCc1nc2c(N)nc3ccccc3c2n1CC(C)(C)O [R848 (water soluble)] | – | – | – | – | – | – | comparable |
